Laboratory results taken from paper PMC6422671 (British Journal of Clinical Pharmacology, 2019).

Assay: Clinical laboratory findings: chemistry; data mean (standard deviation)
Type: in vivo, healthy men
Source text: Data are mean (standard deviation).

## C[C@@H](N)c1cc(Cl)ccc1Cn1c(=S)[nH]c(=O)c2[nH]ccc21 [AZD4831]
45 mg fed, 24 h
  ALP: 0.993 (0.202) µkat L^–1
  ALT: 0.324 (0.125) µkat L^–1
  AST: 0.281 (0.048) µkat L^–1
  Albumin: 41.2 (3.8) g L^–1
  Bilirubin: 9.7 (0.6) µmol L^–1
  CRP: 0.42 (0.20) mg L^–1
  Calcium: 2.30 (0.10) mmol L^–1
  Creatinine: 71.2 (11.4) µmol L^–1
  GGT: 0.310 (0.053) µkat L^–1
  Glucose: 5.06 (0.38) mmol L^–1
  Phosphate: 1.10 (0.08) mmol L^–1
  Potassium: 4.28 (0.26) mmol L^–1
  Sodium: 139.6 (1.6) mmol L^–1
  Urea: 4.04 (0.45) mmol L^–1
45 mg fed, 48 h
  ALP: 1.004 (0.205) µkat L^–1
  ALT: 0.325 (0.119) µkat L^–1
  AST: 0.296 (0.053) µkat L^–1
  Albumin: 42.1 (3.4) g L^–1
  Bilirubin: 9.5 (1.3) µmol L^–1
  CRP: 0.42 (0.22) mg L^–1
  Calcium: 2.33 (0.07) mmol L^–1
  Creatinine: 70.9 (9.3) µmol L^–1
  GGT: 0.303 (0.051) µkat L^–1
  Glucose: 5.27 (0.13) mmol L^–1
  Phosphate: 1.09 (0.05) mmol L^–1
  Potassium: 4.27 (0.05) mmol L^–1
  Sodium: 140.1 (1.4) mmol L^–1
  Urea: 4.19 (0.41) mmol L^–1
45 mg fed, follow up
  ALP: 1.103 (0.265) µkat L^–1
  ALT: 0.364 (0.151) µkat L^–1
  AST: 0.358 (0.049) µkat L^–1
  Albumin: 44.1 (3.2) g L^–1
  Bilirubin: 9.6 (2.3) µmol L^–1
  CRP: 2.35 (3.10) mg L^–1
  Calcium: 2.34 (0.08) mmol L^–1
  Creatinine: 74.6 (5.0) µmol L^–1
  GFR: 109 (15) mL min^–1 1.73m^–2
  GGT: 0.316 (0.087) µkat L^–1
  Glucose: 5.18 (0.25) mmol L^–1
  Phosphate: 1.08 (0.11) mmol L^–1
  Potassium: 4.34 (0.20) mmol L^–1
  Sodium: 139.6 (0.6) mmol L^–1
  Urea: 4.18 (0.78) mmol L^–1
135 mg fasted, 24 h
  ALP: 1.128 (0.226) µkat L^–1
  ALT: 0.323 (0.137) µkat L^–1
  AST: 0.304 (0.076) µkat L^–1
  Albumin: 43.4 (2.4) g L^–1
  Bilirubin: 12.2 (4.3) µmol L^–1
  CRP: 0.60 (0.30) mg L^–1
  Calcium: 2.36 (0.08) mmol L^–1
  Creatinine: 83.6 (8.7) µmol L^–1
  GGT: 0.318 (0.171) µkat L^–1
  Glucose: 4.74 (0.58) mmol L^–1
  Phosphate: 1.06 (0.23) mmol L^–1
  Potassium: 4.11 (0.11) mmol L^–1
  Sodium: 139.8 (0.7) mmol L^–1
  Urea: 4.50 (0.56) mmol L^–1
135 mg fasted, 48 h
  ALP: 1.175 (0.250) µkat L^–1
  ALT: 0.325 (0.191) µkat L^–1
  AST: 0.308 (0.101) µkat L^–1
  Albumin: 43.9 (2.8) g L^–1
  Bilirubin: 11.6 (3.5) µmol L^–1
  CRP: 0.50 (0.26) mg L^–1
  Calcium: 2.37 (0.07) mmol L^–1
  Creatinine: 81.0 (9.1) µmol L^–1
  GGT: 0.325 (0.161) µkat L^–1
  Glucose: 4.75 (0.37) mmol L^–1
  Phosphate: 1.01 (0.19) mmol L^–1
  Potassium: 4.06 (0.17) mmol L^–1
  Sodium: 140.3 (1.4) mmol L^–1
  Urea: 4.24 (0.74) mmol L^–1
135 mg fasted, follow up
  ALP: 1.239 (0.208) µkat L^–1
  ALT: 0.299 (0.129) µkat L^–1
  AST: 0.332 (0.064) µkat L^–1
  Albumin: 46.0 (2.6) g L^–1
  Bilirubin: 13.1 (5.1) µmol L^–1
  CRP: 8.94 (12.69) mg L^–1
  Calcium: 2.36 (0.11) mmol L^–1
  Creatinine: 85.1 (12.7) µmol L^–1
  GFR: 104 (22) mL min^–1 1.73m^–2
  GGT: 0.306 (0.143) µkat L^–1
  Glucose: 4.71 (0.54) mmol L^–1
  Phosphate: 1.00 (0.21) mmol L^–1
  Potassium: 4.07 (0.20) mmol L^–1
  Sodium: 140.2 (2.1) mmol L^–1
  Urea: 4.15 (1.35) mmol L^–1
405 mg fasted, 24 h
  ALP: 0.958 (0.139) µkat L^–1
  ALT: 0.338 (0.119) µkat L^–1
  AST: 0.363 (0.077) µkat L^–1
  Albumin: 43.7 (2.3) g L^–1
  Bilirubin: 14.9 (2.3) µmol L^–1
  CRP: 1.17 (1.28) mg L^–1
  Calcium: 2.39 (0.06) mmol L^–1
  Creatinine: 86.2 (14.7) µmol L^–1
  GGT: 0.298 (0.146) µkat L^–1
  Glucose: 4.77 (0.30) mmol L^–1
  Phosphate: 1.07 (0.11) mmol L^–1
  Potassium: 4.42 (0.31) mmol L^–1
  Sodium: 139.2 (1.0) mmol L^–1
  Urea: 4.55 (1.01) mmol L^–1
405 mg fasted, 48 h
  ALP: 0.947 (0.186) µkat L^–1
  ALT: 0.351 (0.097) µkat L^–1
  AST: 0.366 (0.075) µkat L^–1
  Albumin: 44.2 (2.7) g L^–1
  Bilirubin: 13.4 (2.1) µmol L^–1
  CRP: 1.19 (1.17) mg L^–1
  Calcium: 2.40 (0.06) mmol L^–1
  Creatinine: 81.1 (13.0) µmol L^–1
  GGT: 0.290 (0.133) µkat L^–1
  Glucose: 4.88 (0.35) mmol L^–1
  Phosphate: 1.06 (0.15) mmol L^–1
  Potassium: 4.33 (0.33) mmol L^–1
  Sodium: 139.6 (1.0) mmol L^–1
  Urea: 4.68 (1.07) mmol L^–1
405 mg fasted, follow up
  ALP: 1.037 (0.190) µkat L^–1
  ALT: 0.346 (0.071) µkat L^–1
  AST: 0.398 (0.062) µkat L^–1
  Albumin: 46.6 (2.7) g L^–1
  Bilirubin: 13.2 (3.1) µmol L^–1
  CRP: 1.17 (0.86) mg L^–1
  Calcium: 2.43 (0.10) mmol L^–1
  Creatinine: 81.1 (12.2) µmol L^–1
  GFR: 104 (12) mL min^–1 1.73m^–2
  GGT: 0.298 (0.137) µkat L^–1
  Glucose: 4.63 (0.39) mmol L^–1
  Phosphate: 1.12 (0.17) mmol L^–1
  Potassium: 4.39 (0.18) mmol L^–1
  Sodium: 141.5 (2.6) mmol L^–1
  Urea: 3.87 (0.96) mmol L^–1
Except serum uric acid at 135 mg or 405 mg
  changes in clinical chemistry, haematology or urinary parameters: no systemic or dose‐related changes
